Organism: Rattus norvegicus
Assay: Open TG-GATES - Regimen: Daily Repeat
Format: toxicity, organism-based, Sprague-Dawley
Design: regimen Daily Repeat, gender Male, age 6 weeks
Conditions: in vivo, po, 400 mg/kg, route gavage, dose level High; for KIDNEY_L / KIDNEY_R / KIDNEY_TOTAL: tissue Kidney; for LIVER: tissue Liver; for ALP / ALT / AST / BUN / CRE / Ca / DBIL / IP / K / LDH / Na / PL / RALB / TBIL / TC / TG / TP / gamma-GTP: tissue Plasma

CCC(C)(C)C(=O)O[C@H]1C[C@@H](C)C=C2C=C[C@H](C)[C@H](CC[C@@H]3C[C@@H](O)CC(=O)O3)[C@H]21 [SIMVASTATIN]
Lym (72 h, tissue Blood, time 3 day): 72.4% | MCHC (72 h, tissue Blood, time 3 day): 33.3% | Mono (72 h, tissue Blood, time 3 day): 5.8% | Neu (72 h, tissue Blood, time 3 day): 20.6% | PT (72 h, tissue Blood, time 3 day): 15.6 s | Plat (72 h, tissue Blood, time 3 day): 126.8 x10_4/uL | RBC (72 h, tissue Blood, time 3 day): 699.4 x10_4/ul | Ret (72 h, tissue Blood, time 3 day): 2.6% | WBC (72 h, tissue Blood, time 3 day): 96.5 x10_2/uL | KIDNEY_L (72 h, time 3 day): 0.9 g | KIDNEY_R (72 h, time 3 day): 0.9 g | KIDNEY_TOTAL (72 h, time 3 day): 1.8 g | LIVER (72 h, time 3 day): 9.1 g | ALP (72 h, time 3 day): 613.8 IU/L | ALT (72 h, time 3 day): 173.4 IU/L | AST (72 h, time 3 day): 134 IU/L | BUN (72 h, time 3 day): 15 mg/dL | CRE (72 h, time 3 day): 0.5 mg/dL | Ca (72 h, time 3 day): 10 mg/dL | DBIL (72 h, time 3 day): 0.012 mg/dL | IP (72 h, time 3 day): 6.9 mg/dL | K (72 h, time 3 day): 5 meq/L | LDH (72 h, time 3 day): 155.8 IU/L | Na (72 h, time 3 day): 137.2 meq/L | PL (72 h, time 3 day): 82.2 mg/dL | RALB (72 h, time 3 day): 4 g/dL | TBIL (72 h, time 3 day): 0.4 mg/dL | TC (72 h, time 3 day): 51.4 mg/dL | TG (72 h, time 3 day): 17.6 mg/dL | TP (72 h, time 3 day): 5.3 g/dL | gamma-GTP (72 h, time 3 day): 1.6 IU/L | TERMINAL_BW ([…], time 7 day): 208 g | TERMINAL_BW ([…], time 14 day): 268.6 g | TERMINAL_BW ([…], time 28 day): 365.2 g | Bas ([…], tissue Blood, time 7 day): 0% | Eos ([…], tissue Blood, time 7 day): 1% | Fbg ([…], tissue Blood, time 7 day): 212.2 mg/dL | Hb ([…], tissue Blood, time 7 day): 13.7 g/dL | Ht ([…], tissue Blood, time 7 day): 41.7% | Lym ([…], tissue Blood, time 7 day): 78% | MCHC ([…], tissue Blood, time 7 day): 32.8% | Mono ([…], tissue Blood, time 7 day): 7.5% | Neu ([…], tissue Blood, time 7 day): 13.5% | PT ([…], tissue Blood, time 7 day): 12.8 s | Plat ([…], tissue Blood, time 7 day): 138.7 x10_4/uL | RBC ([…], tissue Blood, time 7 day): 658.2 x10_4/ul | Ret ([…], tissue Blood, time 7 day): 3.4% | WBC ([…], tissue Blood, time 7 day): 98.8 x10_2/uL | Bas ([…], tissue Blood, time 14 day): 0% | Eos ([…], tissue Blood, time 14 day): 1% | Fbg ([…], tissue Blood, time 14 day): 255.2 mg/dL | Hb ([…], tissue Blood, time 14 day): 13.5 g/dL | Ht ([…], tissue Blood, time 14 day): 40.7% | Lym ([…], tissue Blood, time 14 day): 72.8% | MCHC ([…], tissue Blood, time 14 day): 33.1% | Mono ([…], tissue Blood, time 14 day): 9.5% | Neu ([…], tissue Blood, time 14 day): 17.2% | PT ([…], tissue Blood, time 14 day): 12.1 s | Plat ([…], tissue Blood, time 14 day): 148 x10_4/uL | RBC ([…], tissue Blood, time 14 day): 673.5 x10_4/ul | Ret ([…], tissue Blood, time 14 day): 8.1% | WBC ([…], tissue Blood, time 14 day): 114.1 x10_2/uL | Bas ([…], tissue Blood, time 28 day): 0% | Eos ([…], tissue Blood, time 28 day): 1% | Fbg ([…], tissue Blood, time 28 day): 234.2 mg/dL | Hb ([…], tissue Blood, time 28 day): 14.6 g/dL | Ht ([…], tissue Blood, time 28 day): 44% | Lym ([…], tissue Blood, time 28 day): 80.2% | MCHC ([…], tissue Blood, time 28 day): 33.1% | MCV ([…], tissue Blood, time 28 day): 58.5 fL | Mono ([…], tissue Blood, time 28 day): 5.6% | Neu ([…], tissue Blood, time 28 day): 13.8% | PT ([…], tissue Blood, time 28 day): 13 s | Plat ([…], tissue Blood, time 28 day): 130.1 x10_4/uL | RBC ([…], tissue Blood, time 28 day): 753.2 x10_4/ul | Ret ([…], tissue Blood, time 28 day): 3% | WBC ([…], tissue Blood, time 28 day): 117.8 x10_2/uL | KIDNEY_L ([…], time 7 day): 1 g | KIDNEY_R ([…], time 7 day): 1 g | KIDNEY_TOTAL ([…], time 7 day): 1.9 g | KIDNEY_L ([…], time 14 day): 1.2 g | KIDNEY_R ([…], time 14 day): 1.2 g | KIDNEY_TOTAL ([…], time 14 day): 2.4 g | KIDNEY_L ([…], time 28 day): 1.3 g | KIDNEY_R ([…], time 28 day): 1.4 g | KIDNEY_TOTAL ([…], time 28 day): 2.7 g | LIVER ([…], time 7 day): 12.1 g | LIVER ([…], time 14 day): 16 g | LIVER ([…], time 28 day): 20.6 g | ALP ([…], time 7 day): 693.8 IU/L | ALT ([…], time 7 day): 96.2 IU/L | AST ([…], time 7 day): 100.2 IU/L | BUN ([…], time 7 day): 21 mg/dL | CRE ([…], time 7 day): 0.6 mg/dL | Ca ([…], time 7 day): 11.3 mg/dL | DBIL ([…], time 7 day): 0.025 mg/dL | IP ([…], time 7 day): 6.2 mg/dL | K ([…], time 7 day): 4.7 meq/L | LDH ([…], time 7 day): 136 IU/L | Na ([…], time 7 day): 141.2 meq/L | PL ([…], time 7 day): 116.8 mg/dL | RALB ([…], time 7 day): 4.1 g/dL | TBIL ([…], time 7 day): 0.3 mg/dL | TC ([…], time 7 day): 67.5 mg/dL | TG ([…], time 7 day): 36.8 mg/dL | TP ([…], time 7 day): 5.9 g/dL | gamma-GTP ([…], time 7 day): 1.2 IU/L | ALP ([…], time 14 day): 717.5 IU/L | ALT ([…], time 14 day): 100.5 IU/L | AST ([…], time 14 day): 275.8 IU/L | BUN ([…], time 14 day): 19.2 mg/dL | CRE ([…], time 14 day): 0.6 mg/dL | Ca ([…], time 14 day): 10.8 mg/dL | DBIL ([…], time 14 day): 0.0075 mg/dL | IP ([…], time 14 day): 6.7 mg/dL | K ([…], time 14 day): 4.2 meq/L | LDH ([…], time 14 day): 121.2 IU/L | Na ([…], time 14 day): 140 meq/L | PL ([…], time 14 day): 115 mg/dL | RALB ([…], time 14 day): 3.7 g/dL | TBIL ([…], time 14 day): 0.3 mg/dL | TC ([…], time 14 day): 66.5 mg/dL | TG ([…], time 14 day): 60.5 mg/dL | TP ([…], time 14 day): 5.5 g/dL | gamma-GTP ([…], time 14 day): 2.2 IU/L | ALP ([…], time 28 day): 691.8 IU/L | ALT ([…], time 28 day): 55 IU/L | AST ([…], time 28 day): 71.6 IU/L | BUN ([…], time 28 day): 23.6 mg/dL | CRE ([…], time 28 day): 0.6 mg/dL | Ca ([…], time 28 day): 10.9 mg/dL | DBIL ([…], time 28 day): 0.018 mg/dL | IP ([…], time 28 day): 5.6 mg/dL | K ([…], time 28 day): 4.4 meq/L | LDH ([…], time 28 day): 132 IU/L | Na ([…], time 28 day): 142.6 meq/L | PL ([…], time 28 day): 116.2 mg/dL | RALB ([…], time 28 day): 4.1 g/dL | TBIL ([…], time 28 day): 0.3 mg/dL | TC ([…], time 28 day): 57.6 mg/dL | TG ([…], time 28 day): 85.4 mg/dL | TP ([…], time 28 day): 6.1 g/dL | gamma-GTP ([…], time 28 day): 1.2 IU/L
